According to ChEMBL document CHEMBL6109039, “Designed and synthesized novel tripeptides targeting diabetes and its related pathologies” (Eur J Med Chem, 2025):

Tests used:
[1] = biological target: T1, Albumin (Homo sapiens, UniProt P02768); experiment: Inhibition of D-fructose glycation in human serum albumin model by measuring ketoamine moieties incubated for 3 days by Nitroblue tetrazolium (NBT) reduction assay (reference value: 152.64 nmol/mL); settings: 72 h, time 3 day
[2] = biological target: T1, Albumin; experiment: Inhibition of D-glucose glycation in human serum albumin model by measuring ketoamine moieties incubated for 30 days by Nitroblue tetrazolium (NBT) reduction assay (reference value: 27.85 nmol/mL); settings: 720 h, time 30 day
[3] = biological target: T1, Albumin; experiment: Inhibition of D-fructose glycation in human serum albumin model by measuring absorbance at 279 nm incubated for 14 days by UV spectroscopic analysis (reference value: 2.333); settings: 336 h, time 14 day
[4] = biological target: T1, Albumin; experiment: Inhibition of D-glucose glycation in human serum albumin model by measuring absorbance at 279 nm incubated for 3 days by UV spectroscopic analysis (reference value: 0.562); settings: 72 h, time 3 day
[5] = biological target: T1, Albumin; experiment: Inhibition of D-glucose glycation in human serum albumin model by measuring ketoamine moieties incubated for 3 days by Nitroblue tetrazolium (NBT) reduction assay (reference value: 24.27 nmol/mL); settings: 72 h, time 3 day
[6] = biological target: T1, Albumin; experiment: Inhibition of D-fructose glycation in human serum albumin model incubated for 14 days by UV spectroscopic analysis relative to control; settings: 336 h, time 14 day
[7] = biological target: T1, Albumin; experiment: Inhibition of D-glucose glycation in human serum albumin model by measuring ketoamine moieties incubated for 5 days by Nitroblue tetrazolium (NBT) reduction assay (reference value: 18.58 nmol/mL); settings: 120 h, time 5 day
[8] = biological target: T1, Albumin; experiment: Inhibition of D-glucose glycation in human serum albumin model by measuring ketoamine moieties incubated for 7 days by Nitroblue tetrazolium (NBT) reduction assay (reference value: 35.92 nmol/mL); settings: 168 h, time 7 day
[9] = biological target: T1, Albumin; experiment: Inhibition of D-fructose glycation in human serum albumin model by measuring absorbance at 279 nm incubated for 5 days by UV spectroscopic analysis (reference value: 1.056); settings: 120 h, time 5 day
[10] = biological target: T1, Albumin; experiment: Inhibition of D-glucose glycation in human serum albumin model by measuring ketoamine moieties incubated for 14 days by Nitroblue tetrazolium (NBT) reduction assay (reference value: 28.69 nmol/mL); settings: 336 h, time 14 day
[11] = biological target: T1, Albumin; experiment: Inhibition of D-glucose glycation in human serum albumin model assessed as reduction in fluorescence intensity incubated for 3 days by UV spectroscopic analysis relative to control; settings: 72 h, time 3 day
[12] = biological target: T1, Albumin; experiment: Inhibition of D-fructose glycation in human serum albumin model by measuring absorbance at 279 nm incubated for 26 days by UV spectroscopic analysis (reference value: 2.267); settings: 624 h, time 26 day
[13] = biological target: T1, Albumin; experiment: Inhibition of D-glucose glycation in human serum albumin model by measuring ketoamine moieties incubated for 26 days by Nitroblue tetrazolium (NBT) reduction assay (reference value: 28.79 nmol/mL); settings: 624 h, time 26 day
[14] = biological target: T1, Albumin; experiment: Inhibition of D-glucose glycation in human serum albumin model by measuring absorbance at 279 nm incubated for 5 days by UV spectroscopic analysis (reference value: 0.741); settings: 120 h, time 5 day
[15] = biological target: T1, Albumin; experiment: Inhibition of D-fructose glycation in human serum albumin model by measuring absorbance at 279 nm incubated for 3 days by UV spectroscopic analysis (reference value: 0.492); settings: 72 h, time 3 day
[16] = biological target: T1, Albumin; experiment: Inhibition of D-fructose glycation in human serum albumin model assessed as reduction in fluorescence intensity incubated for 3 days by UV spectroscopic analysis relative to control; settings: 72 h, time 3 day
[17] = biological target: T1, Albumin; experiment: Inhibition of D-fructose glycation in human serum albumin model by measuring ketoamine moieties incubated for 14 days by Nitroblue tetrazolium (NBT) reduction assay (reference value: 129.58 nmol/mL); settings: 336 h, time 14 day
[18] = biological target: T1, Albumin; experiment: Inhibition of D-glucose glycation in human serum albumin by measuring absorbance at 279 nm model incubated for 14 days by UV spectroscopic analysis (reference value: 2.302); settings: 336 h, time 14 day
[19] = biological target: T1, Albumin; experiment: Inhibition of D-glucose glycation in human serum albumin model by measuring absorbance at 279 nm incubated for 33 days by UV spectroscopic analysis (reference value: 1.997); settings: 792 h, time 33 day
[20] = biological target: T1, Albumin; experiment: Inhibition of D-glucose glycation in human serum albumin model incubated for 14 days by UV spectroscopic analysis relative to control; settings: 336 h, time 14 day
[21] = biological target: T1, Albumin; experiment: Inhibition of D-fructose glycation in human serum albumin model by measuring absorbance at 279 nm incubated for 7 days by UV spectroscopic analysis (reference value: 1.072); settings: 168 h, time 7 day
[22] = biological target: T1, Albumin; experiment: Inhibition of D-fructose glycation in human serum albumin model by measuring ketoamine moieties incubated for 7 days by Nitroblue tetrazolium (NBT) reduction assay (reference value: 125.33 nmol/mL); settings: 168 h, time 7 day
[23] = biological target: T1, Albumin; experiment: Inhibition of D-fructose glycation in human serum albumin model by measuring ketoamine moieties incubated for 26 days by Nitroblue tetrazolium (NBT) reduction assay (reference value: 118.21 nmol/mL); settings: 624 h, time 26 day
[24] = biological target: T1, Albumin; experiment: Inhibition of D-fructose glycation in human serum albumin model by measuring absorbance at 279 nm incubated for 30 days by UV spectroscopic analysis (reference value: 2.323); settings: 720 h, time 30 day
[25] = biological target: T1, Albumin; experiment: Inhibition of D-glucose glycation in human serum albumin model by measuring absorbance at 279 nm incubated for 30 days by UV spectroscopic analysis (reference value: 2.295); settings: 720 h, time 30 day
[26] = biological target: T1, Albumin; experiment: Inhibition of D-fructose glycation in human serum albumin model by measuring ketoamine moieties incubated for 30 days by Nitroblue tetrazolium (NBT) reduction assay (reference value: 128.71 nmol/mL); settings: 720 h, time 30 day
[27] = biological target: T1, Albumin; experiment: Inhibition of D-fructose glycation in human serum albumin model by measuring ketoamine moieties incubated for 5 days by Nitroblue tetrazolium (NBT) reduction assay (reference value: 111.94 nmol/mL); settings: 120 h, time 5 day
[28] = biological target: T1, Albumin; experiment: Inhibition of D-fructose glycation in human serum albumin model by measuring ketoamine moieties incubated for 33 days by Nitroblue tetrazolium (NBT) reduction assay (reference value: 144.33 nmol/mL); settings: 792 h, time 33 day
[29] = biological target: T1, Albumin; experiment: Inhibition of D-fructose glycation in human serum albumin model by measuring absorbance at 279 nm incubated for 33 days by UV spectroscopic analysis (Rvb =2.222); settings: 792 h, time 33 day
[30] = biological target: T1, Albumin; experiment: Inhibition of D-glucose glycation in human serum albumin model by measuring ketoamine moieties incubated for 33 days by Nitroblue tetrazolium (NBT) reduction assay (reference value: 66.64 nmol/mL); settings: 792 h, time 33 day
[31] = biological target: T1, Albumin; experiment: Inhibition of D-glucose glycation in human serum albumin model by measuring absorbance at 279 nm incubated for 26 days by UV spectroscopic analysis (reference value: 2.301); settings: 624 h, time 26 day
[32] = biological target: T1, Albumin; experiment: Inhibition of D-glucose glycation in human serum albumin model by measuring absorbance at 279 nm incubated for 7 days by UV spectroscopic analysis (reference value: […]); settings: 168 h, time 7 day

T1 sequence (P02768 whole entry): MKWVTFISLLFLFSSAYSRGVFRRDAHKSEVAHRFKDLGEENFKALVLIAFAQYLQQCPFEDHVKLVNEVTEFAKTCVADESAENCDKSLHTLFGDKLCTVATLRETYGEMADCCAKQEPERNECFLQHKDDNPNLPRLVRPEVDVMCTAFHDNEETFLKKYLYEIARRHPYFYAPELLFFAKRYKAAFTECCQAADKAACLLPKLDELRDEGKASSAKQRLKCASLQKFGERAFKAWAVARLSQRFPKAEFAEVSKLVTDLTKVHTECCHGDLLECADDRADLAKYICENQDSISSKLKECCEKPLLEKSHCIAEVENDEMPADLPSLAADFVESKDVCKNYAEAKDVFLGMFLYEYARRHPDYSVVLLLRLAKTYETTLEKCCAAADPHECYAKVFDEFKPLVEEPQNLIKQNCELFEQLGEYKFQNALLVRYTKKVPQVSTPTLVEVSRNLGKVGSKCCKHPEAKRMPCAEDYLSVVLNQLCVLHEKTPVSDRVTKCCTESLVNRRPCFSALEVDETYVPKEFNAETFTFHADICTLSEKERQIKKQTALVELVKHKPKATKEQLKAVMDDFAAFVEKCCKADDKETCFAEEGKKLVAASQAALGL

NCCC(=O)N[C@@H](Cc1cnc[nH]1)C(=O)O [CARNOSINE]
Activity [1]: 144.52 nmol/mL
Activity [2]: 24.69 nmol/mL
OD [3]: 1.872
OD [4]: 0.562
Activity [5]: 20.51 nmol/mL
inhibition (INH) [6]: 1.59%
Activity [7]: 17.43 nmol/mL
Activity [8]: 19.93 nmol/mL
OD [9]: 1.024
Activity [10]: 25.34 nmol/mL
inhibition (INH) [11]: 52.1%
OD [12]: 2.127
Activity [13]: 27.61 nmol/mL
OD [14]: 0.684
OD [15]: 0.487
inhibition (INH) [16]: 27.77%
Activity [17]: 124.63 nmol/mL
OD [18]: 1.662
OD [19]: 1.853
inhibition (INH) [20]: 41.84%
OD [21]: 0.756
Activity [22]: 119.64 nmol/mL
Activity [23]: 113.02 nmol/mL
OD [24]: 1.866
OD [25]: 1.654
Activity [26]: 123.84 nmol/mL
Activity [27]: 105.35 nmol/mL
Activity [28]: 143.12 nmol/mL
OD [29]: 2.173
Activity [30]: 36.79 nmol/mL
OD [31]: 2.274
OD [32]: 0.609
